# Reference: patent publication US9234025B2, “Extracellular allosteric inhibitor binding domain from a tyrosine kinase receptor” (SANOFI, priority 2009, dated 2016)
# Key:
# FGFR2^WT = molecular target: T1, FGFR2^WT (Homo sapiens, UniProt P21802); experiment: FGF2-induced ERK1/2 phosphorylation in HEK293 cells, FGFR2 WT; format: cell-based; settings: stable HEK293 FGFR2^WT cells; FGF2 0.5 ng/ml 5 min; average±sem, three experiments; read-out: IC50 value, inhibition of FGF2 induced ERK1/2 phosphorylation
# T1 construct: expressed in transfected cells
# T1 sequence (P21802 22-821): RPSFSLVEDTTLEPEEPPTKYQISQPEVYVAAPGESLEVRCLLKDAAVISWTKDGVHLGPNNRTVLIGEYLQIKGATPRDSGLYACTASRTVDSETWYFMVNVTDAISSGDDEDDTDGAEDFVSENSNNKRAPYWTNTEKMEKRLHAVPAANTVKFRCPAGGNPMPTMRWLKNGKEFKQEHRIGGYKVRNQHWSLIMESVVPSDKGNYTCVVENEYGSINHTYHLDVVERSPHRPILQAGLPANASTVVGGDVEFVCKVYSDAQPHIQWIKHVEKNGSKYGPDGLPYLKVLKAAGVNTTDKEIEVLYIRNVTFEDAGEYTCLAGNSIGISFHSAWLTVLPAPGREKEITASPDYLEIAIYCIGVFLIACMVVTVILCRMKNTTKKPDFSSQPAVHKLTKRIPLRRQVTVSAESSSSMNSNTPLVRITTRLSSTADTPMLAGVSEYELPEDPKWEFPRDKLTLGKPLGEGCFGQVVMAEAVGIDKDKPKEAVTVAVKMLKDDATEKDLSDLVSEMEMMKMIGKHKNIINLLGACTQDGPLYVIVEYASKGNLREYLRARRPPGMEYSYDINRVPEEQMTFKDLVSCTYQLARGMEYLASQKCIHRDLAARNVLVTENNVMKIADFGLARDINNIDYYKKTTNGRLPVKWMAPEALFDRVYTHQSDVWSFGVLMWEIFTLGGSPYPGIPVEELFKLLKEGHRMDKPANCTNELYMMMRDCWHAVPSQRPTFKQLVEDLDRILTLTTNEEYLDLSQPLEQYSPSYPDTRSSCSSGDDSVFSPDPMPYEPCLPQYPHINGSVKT
# Method: (§1) HEK293 cells were either transiently of stably transfected (using FuGENE 6, Roche) with hFGFR2IIIca or hFGFR2IIIca-Y328D cloned in pcDNA3 (Invitrogen). Stably transfected cells were grown in G418 (400 μg/ml) containing medium. Before stimulation, the cells were starved overnight in DMEM (0% serum), and pre-incubated with […] at the required concentration. The cells were subsequently stimulated with FGF2 (concentration between 0.5-10 ng/ml) for 5 min at 37° C. with or without SSR or SU5402 at 1 μM. After washing with ice-cold phosphate-buffered saline containing phosphatase inhibitors (Roche), cells were lysed in RIPA buffer (Tris 30 mM HCl pH 7.5, 150 mM NaCl, 1 mM EDTA, 1% triton-X, 0.5% w/v deoxycholate, containing phophatase and protease inhibitors as described by the manufacturer (Roche)). Cell lysates were centrifuged at 12,000 g for 10 min, and the supernatants were collected. Proteins were separated on Novex polyacrylamide gels (Invitrogen, Carlsbad, Calif.) and subsequently transferred onto Hybond ECL nitrocellulose membranes (Amersham Pharmacia). Following incubation with 5% non-fat milk powder in PBS, the membranes were incubated overnight at 4° C. with the following antibodies: phospho-ERK1/2 (CST:9101), phospho-FRS2 (CST:3861), phospho-PLCγ (CST:2821) and FGFR2 (F0300, Sigma).
# HUVEC = HUVEC in vitro angiogenesis; format: cell-based, human; settings: low nanomolar range
# Method: Collagen/matrigel gels are prepared by distributing in each well of a chamberslide (Biocoat Cellware collagen, Type I, 8-well culturesides: Becton dickinson 354630), 160 μl of 1/6 diluted matrigel (Growth factor reduced Matrigel: Becton dickinson 356230) in collagen I (rat Tail collagene, type I: Becton dickinson 354236). Polymerisation occurs at 37° C. for 1 h. Then, 15.10^3 HUVEC are added per well in 400 μl EBM medium (Clonetics C3121)+2% FCS+hEGF 10 μg/ml. Endothelial cells are stimulated with 10 ng/ml of FGF2 (R&D, 133-FB-025), FGF4 (R&D, 235-F4-025) or FGF19 (R&D, 969-FG-025) for 24 h at 37° C. in a CO2 chamber. Then, total length of pseudotubules is quantified using a bioimaging system (Imagenia Biocom, Courtaboeuf, France).
# PANC02 cells = experiment: PANC02 proliferation; format: cell-based; settings: 100 nM SSR; 100 ng/ml FGF7 with or without VEGF; FGFR2-IIIb
# Method: Cell proliferation was analysed on exponentially growing cells that were starved for 16 hours in 100 μl RPMI 1640 (Invitrogen, 32404-014) with 0.2% FBS (Hyclone, SH30070.03), 2 mM glutamine, MEM non-essential amino-acid 1× (Gibco, 11140-035), MEM sodium pyruvate 1× (Gibco, 11360-039) and seeded at 4,000 cells/well in 96-well microplates. After exposure to mitogens and/or SSR for 72 hours, cell proliferation was assessed with the use of the CellTiter 96 AQueous One Solution Cell Proliferation Assay (Promega, Madison, Wis., USA) according to manufacturer's instructions. Cell migration was assessed by a modified Boyden chamber assay, by using 24-well inserts containing 8 μm pore size transwell permeable supports with a polycarbonate membrane (Costar, Corning Inc.). Exponentially growing cells were starved in 0.2% FBS containing medium for 16 hours and resuspended at 5×10^5 cells/ml in the same low serum medium. 100 μl of the cell suspension were seeded in the upper chamber, while chemoattractants and/or SSR were placed in the lower chamber. 10% FBS containing medium was used a positive control. After 6 hours incubation at 37° C., cells on the upper side of the membrane were scraped using a cotton swab, while migrated cells on the lower surface were fixed with 4% formaldehyde and nuclei stained with DAPI for quantification.
# FGFR2 = experiment: FRS2, Erk1/2 and PLCγ phosphorylation in FGFR2-transfected HEK293 cells (western blot); format: cell-based, human; settings: compound at 1 μM
# Method: as §1
# In order to evaluate SSR effect on FGFR-controlled phosphor-signalling, HEK293 cells have been transfected with FGFR2 and the two main pathways following FGFR autophosphorylation, PLCγ and FRS2, have been studied by western blot in comparison with a published FGFR tyrosine kinase inhibitor SU5402 described to inhibit FGFR-dependent FRS2 and PLCγ cascades (Zhen et al., Oncogene 2007). In such cells, FGF induces FRS2, Erk1/2 and PLCγ phosphorylation. […] More generally, these differences in phosphorylation can be used as reporter to evaluate allosteric modulators.
structure (smiles),measurement,setting,value
COc1c(C)c(C(=O)c2ccc(N)c(C(=O)[O-])c2)n2ccccc12.[Na+] [SSR],IC50,FGFR2^WT,28 ± 12 nM
same,FGF2-induced HUVEC in vitro angiogenesis,HUVEC,blocks FGF2-induced HUVEC angiogenesis
same,FGF7-induced PANC02 proliferation,PANC02 cells,blocked
same,FGF-induced FRS2 phosphorylation,FGFR2,only inhibits FRS2 pathway
same,FGF-induced PLCγ phosphorylation,FGFR2,doesn't inhibit
